According to US9309242B2, “Substituted pyrido[2,3-b]pyrazines as FGFR kinase inhibitors” (priority 2011, dated 2016):
Like-named read-outs stand apart in the source and are kept apart here.

How the values were obtained:
[1] = test system: Ba/F3-FGFR1-transfected cells; experiment: Ba/F3-FGFR1 (plus IL3) cellular proliferation assay, counterscreen with 10 ng/ml murine IL3; type: cell-based; conditions: plus IL3 (10 ng/ml murine IL3, counterscreen); read-out: BAF3-FGFR1 (PLUS IL3) pIC50 (converted)
Method in brief: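 Proliferation read-out: resazurin-based Alamar Blue fluorescence (540/590 nm) after 4 h, following 24 h compound treatment of 20000 Ba/F3-FGFR1 cells per well in 10% FBS RPMI at 37° C. IL3 counterscreen used the same protocol plus 10 ng/ml murine IL3.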

FGFR2 (h) = FGFR2 (h) (Homo sapiens, UniProt P21802); experiment: FGFR2 (enzymatic assay), TR-FRET; type: biochemical; conditions: enzymatic assay, read-out: FGFR 2 pIC50 (converted)
Sequence of FGFR2 (h) (P21802 22-821): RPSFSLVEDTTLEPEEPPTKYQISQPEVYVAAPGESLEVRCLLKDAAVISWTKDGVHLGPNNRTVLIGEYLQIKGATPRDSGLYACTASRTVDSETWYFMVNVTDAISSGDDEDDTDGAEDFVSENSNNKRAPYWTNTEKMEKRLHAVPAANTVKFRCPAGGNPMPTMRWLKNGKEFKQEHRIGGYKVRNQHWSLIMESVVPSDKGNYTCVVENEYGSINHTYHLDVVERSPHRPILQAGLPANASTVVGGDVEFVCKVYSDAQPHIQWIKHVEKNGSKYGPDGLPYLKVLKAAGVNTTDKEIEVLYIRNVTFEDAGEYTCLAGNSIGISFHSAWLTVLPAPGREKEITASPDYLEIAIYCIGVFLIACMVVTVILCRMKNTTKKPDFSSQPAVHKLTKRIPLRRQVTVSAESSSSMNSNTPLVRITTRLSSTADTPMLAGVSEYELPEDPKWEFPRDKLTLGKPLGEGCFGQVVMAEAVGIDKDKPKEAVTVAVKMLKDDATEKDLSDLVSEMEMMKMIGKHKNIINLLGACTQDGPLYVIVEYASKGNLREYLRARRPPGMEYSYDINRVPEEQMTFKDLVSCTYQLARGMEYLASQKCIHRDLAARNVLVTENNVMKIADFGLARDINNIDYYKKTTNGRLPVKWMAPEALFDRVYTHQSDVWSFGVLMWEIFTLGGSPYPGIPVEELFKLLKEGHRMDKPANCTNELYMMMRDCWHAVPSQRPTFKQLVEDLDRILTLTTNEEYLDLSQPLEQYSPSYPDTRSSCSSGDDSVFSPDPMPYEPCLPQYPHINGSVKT
Method in brief: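 Phosphorylation of 500 nM Btn-Flt3 by human FGFR2 (150 ng/ml) is measured at 0.4 μM ATP. The buffer is 50 mM HEPES pH 7.5 containing 6 mM MnCl2, 1 mM DTT, 0.1 mM Na3VO4 and 0.01% Triton-X-100, and compound is tested at 1% DMSO final.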

FGFR1 (h) = FGFR1 (h) (Homo sapiens, UniProt P11362); experiment: FGFR1 (enzymatic assay), TR-FRET; type: biochemical; conditions: read-out: FGFR 1 pIC50 (converted)
FGFR3 (h) = FGFR3 (h) (Homo sapiens, UniProt P22607); experiment: FGFR3 (enzymatic assay), TR-FRET; type: biochemical; conditions: read-out: FGFR 3 pIC50 (converted)
Sequence of FGFR3 (h) (P22607 23-806): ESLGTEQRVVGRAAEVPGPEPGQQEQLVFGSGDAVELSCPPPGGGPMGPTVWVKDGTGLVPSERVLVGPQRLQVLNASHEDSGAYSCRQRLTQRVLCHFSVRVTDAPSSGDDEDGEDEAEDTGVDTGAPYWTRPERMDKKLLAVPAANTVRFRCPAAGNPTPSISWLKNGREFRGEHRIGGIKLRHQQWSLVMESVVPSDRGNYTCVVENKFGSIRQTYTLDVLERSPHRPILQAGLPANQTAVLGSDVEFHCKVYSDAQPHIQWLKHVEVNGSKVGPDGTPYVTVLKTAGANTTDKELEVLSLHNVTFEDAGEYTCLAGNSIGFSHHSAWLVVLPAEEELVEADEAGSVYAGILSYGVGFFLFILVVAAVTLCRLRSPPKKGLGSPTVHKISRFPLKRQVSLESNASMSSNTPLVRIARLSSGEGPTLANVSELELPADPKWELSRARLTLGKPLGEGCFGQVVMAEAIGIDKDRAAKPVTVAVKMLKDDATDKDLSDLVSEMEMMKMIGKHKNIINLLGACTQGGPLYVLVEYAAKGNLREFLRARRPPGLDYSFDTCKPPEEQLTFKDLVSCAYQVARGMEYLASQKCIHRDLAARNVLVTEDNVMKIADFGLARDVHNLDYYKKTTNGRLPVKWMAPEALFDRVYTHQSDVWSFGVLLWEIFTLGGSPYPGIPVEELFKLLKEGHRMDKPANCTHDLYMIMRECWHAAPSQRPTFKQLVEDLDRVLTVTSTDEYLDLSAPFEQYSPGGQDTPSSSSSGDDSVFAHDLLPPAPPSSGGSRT
Excerpt: Time-Resolved Fluorescence Resonance Energy Transfer (TR-FRET) signal (ex340 nm.

[2] = target: T1, Ba/F3-FGFR1-transfected cells (Homo sapiens, UniProt P11362); experiment: Ba/F3-FGFR1 (minus IL3) cellular proliferation assay, Alamar Blue; type: cell-based
T1 construct: BAF3-FGFR1 (MIN IL3) pIC50; other: minus IL3
T1 sequence (P11362 whole entry, change not shown): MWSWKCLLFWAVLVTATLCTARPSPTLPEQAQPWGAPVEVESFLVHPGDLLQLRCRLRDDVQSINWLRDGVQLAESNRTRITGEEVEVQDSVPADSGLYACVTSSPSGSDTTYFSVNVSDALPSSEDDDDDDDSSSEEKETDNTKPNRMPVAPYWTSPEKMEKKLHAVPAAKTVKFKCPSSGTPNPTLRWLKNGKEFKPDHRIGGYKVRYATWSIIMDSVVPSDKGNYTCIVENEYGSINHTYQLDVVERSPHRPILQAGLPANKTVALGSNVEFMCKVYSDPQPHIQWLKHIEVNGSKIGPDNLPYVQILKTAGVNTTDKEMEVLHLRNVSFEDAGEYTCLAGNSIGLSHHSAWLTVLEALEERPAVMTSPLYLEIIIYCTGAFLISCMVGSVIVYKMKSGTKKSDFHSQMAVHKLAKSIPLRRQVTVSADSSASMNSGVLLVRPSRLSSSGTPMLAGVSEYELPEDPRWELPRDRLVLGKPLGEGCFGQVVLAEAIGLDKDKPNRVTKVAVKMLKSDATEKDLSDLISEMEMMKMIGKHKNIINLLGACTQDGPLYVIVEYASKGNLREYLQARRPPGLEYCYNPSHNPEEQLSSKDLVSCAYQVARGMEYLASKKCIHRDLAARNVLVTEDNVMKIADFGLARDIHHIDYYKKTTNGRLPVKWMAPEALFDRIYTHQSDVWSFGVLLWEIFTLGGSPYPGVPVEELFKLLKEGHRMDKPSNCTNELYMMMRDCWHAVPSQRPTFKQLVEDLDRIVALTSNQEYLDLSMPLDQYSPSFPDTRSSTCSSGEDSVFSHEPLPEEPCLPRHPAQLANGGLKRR
Method in brief: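 Viability of transfected Ba/F3-FGFR1 cells (20000 per well, RPMI-1640 with 10% FBS and 2 mM L-glutamine) was scored by resazurin-based Alamar Blue reduction over 4 h, after 24 h treatment with compound at 37 °C under 5% CO2.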

[3] = test system: Ba/F3-FGFR3-transfected cells; experiment: Ba/F3-FGFR3 (plus IL3) cellular proliferation assay, counterscreen with 10 ng/ml murine IL3; type: cell-based; conditions: plus IL3 (10 ng/ml murine IL3, counterscreen); read-out: BAF3-FGFR3 (PLUS IL3) pIC50 (converted)
Method in brief: (§1)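 With or without 10 ng/ml murine IL3, FGFR3-dependent Ba/F3 cells were treated 24 h with compound, then viability was gauged by Alamar Blue fluorescence after 4 h (ex 540/em 590 nm).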

[4] = target: Ba/F3-FGFR4-transfected cells (Homo sapiens, UniProt P22455); experiment: Ba/F3-FGFR4 cellular proliferation assay, Alamar Blue; type: cell-based
Sequence of Ba/F3-FGFR4-transfected cells (P22455 whole entry, change not shown): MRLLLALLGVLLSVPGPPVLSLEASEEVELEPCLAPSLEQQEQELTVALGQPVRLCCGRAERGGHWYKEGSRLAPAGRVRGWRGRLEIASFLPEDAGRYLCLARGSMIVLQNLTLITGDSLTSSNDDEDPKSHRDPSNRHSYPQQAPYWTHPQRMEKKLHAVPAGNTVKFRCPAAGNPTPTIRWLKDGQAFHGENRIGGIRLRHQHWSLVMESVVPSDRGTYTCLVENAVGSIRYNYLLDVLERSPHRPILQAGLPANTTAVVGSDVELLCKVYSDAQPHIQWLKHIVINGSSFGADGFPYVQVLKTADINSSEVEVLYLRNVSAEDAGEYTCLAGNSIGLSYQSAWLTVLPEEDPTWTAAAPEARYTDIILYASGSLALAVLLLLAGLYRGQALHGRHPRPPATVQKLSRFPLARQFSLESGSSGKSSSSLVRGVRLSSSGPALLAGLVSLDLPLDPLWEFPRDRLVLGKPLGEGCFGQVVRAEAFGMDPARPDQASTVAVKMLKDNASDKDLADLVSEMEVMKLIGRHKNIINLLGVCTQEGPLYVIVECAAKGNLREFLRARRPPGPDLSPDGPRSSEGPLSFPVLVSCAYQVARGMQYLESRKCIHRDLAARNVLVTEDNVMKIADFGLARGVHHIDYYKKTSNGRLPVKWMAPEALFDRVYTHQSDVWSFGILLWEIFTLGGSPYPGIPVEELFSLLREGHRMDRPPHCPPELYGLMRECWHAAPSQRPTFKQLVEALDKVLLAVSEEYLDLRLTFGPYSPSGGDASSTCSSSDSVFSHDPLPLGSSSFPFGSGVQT
Method in brief: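 Proliferation is measured by resazurin reduction: after 24 h compound treatment at 37 °C in RPMI-1640/10% FBS, cells get Alamar Blue for 4 h before RFU read (540/590 nm). Each well holds 20000 Ba/F3-FGFR4-transfected cells.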

[5] = target: T2, Ba/F3-FGFR3-transfected cells (Homo sapiens, UniProt P22607); experiment: Ba/F3-FGFR3 (minus IL3) cellular proliferation assay, Alamar Blue; type: cell-based
T2 construct: BAF3-FGFR3 (MIN IL3) pIC50; other: minus IL3
T2 sequence (P22607 whole entry, change not shown): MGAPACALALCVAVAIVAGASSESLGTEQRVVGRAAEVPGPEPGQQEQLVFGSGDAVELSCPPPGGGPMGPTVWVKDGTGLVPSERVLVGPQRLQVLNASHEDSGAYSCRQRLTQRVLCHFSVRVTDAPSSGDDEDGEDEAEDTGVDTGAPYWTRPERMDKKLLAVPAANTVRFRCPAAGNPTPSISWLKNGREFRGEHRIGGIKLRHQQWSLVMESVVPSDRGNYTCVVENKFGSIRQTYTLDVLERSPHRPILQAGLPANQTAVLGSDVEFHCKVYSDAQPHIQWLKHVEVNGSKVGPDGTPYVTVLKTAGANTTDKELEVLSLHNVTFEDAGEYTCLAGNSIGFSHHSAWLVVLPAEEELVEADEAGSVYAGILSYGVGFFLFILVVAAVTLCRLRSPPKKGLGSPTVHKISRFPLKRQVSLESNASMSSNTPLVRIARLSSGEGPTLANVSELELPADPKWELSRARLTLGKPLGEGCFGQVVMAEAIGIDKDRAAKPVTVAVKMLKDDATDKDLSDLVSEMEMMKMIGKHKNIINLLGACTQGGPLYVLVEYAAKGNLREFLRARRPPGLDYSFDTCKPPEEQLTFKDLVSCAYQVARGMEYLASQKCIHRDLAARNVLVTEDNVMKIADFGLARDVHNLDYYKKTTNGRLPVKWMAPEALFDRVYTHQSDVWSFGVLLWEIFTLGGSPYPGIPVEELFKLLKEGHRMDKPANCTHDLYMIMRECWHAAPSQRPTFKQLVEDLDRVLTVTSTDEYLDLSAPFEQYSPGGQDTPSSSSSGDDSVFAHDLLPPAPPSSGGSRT
Method in brief: as §1

[6] = test system: Ba/F3-KDR-transfected cells; experiment: Ba/F3-KDR (plus IL3) cellular proliferation assay, counterscreen with 10 ng/ml murine IL3; type: cell-based; conditions: plus IL3 (10 ng/ml murine IL3, counterscreen); read-out: BAF3-KDR (PLUS IL3) pIC50 (converted)
Method in brief: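 Proliferation read-out by Alamar Blue fluorescence (ex. 540 nm, em. 590 nm) after 4 hours, following 24 hours of compound treatment at 37° C of 20000 Ba/F3-KDR cells per well in RPMI-1640/10% FBS. Same protocol with 10 ng/ml murine IL3 serves as counterscreen.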

FGFR4 (h) = FGFR4 (h) (Homo sapiens, UniProt P22455); experiment: FGFR4 (enzymatic assay), TR-FRET; type: biochemical; conditions: FGFR 4 pIC50, enzymatic assay
Sequence of FGFR4 (h) (P22455 22-802): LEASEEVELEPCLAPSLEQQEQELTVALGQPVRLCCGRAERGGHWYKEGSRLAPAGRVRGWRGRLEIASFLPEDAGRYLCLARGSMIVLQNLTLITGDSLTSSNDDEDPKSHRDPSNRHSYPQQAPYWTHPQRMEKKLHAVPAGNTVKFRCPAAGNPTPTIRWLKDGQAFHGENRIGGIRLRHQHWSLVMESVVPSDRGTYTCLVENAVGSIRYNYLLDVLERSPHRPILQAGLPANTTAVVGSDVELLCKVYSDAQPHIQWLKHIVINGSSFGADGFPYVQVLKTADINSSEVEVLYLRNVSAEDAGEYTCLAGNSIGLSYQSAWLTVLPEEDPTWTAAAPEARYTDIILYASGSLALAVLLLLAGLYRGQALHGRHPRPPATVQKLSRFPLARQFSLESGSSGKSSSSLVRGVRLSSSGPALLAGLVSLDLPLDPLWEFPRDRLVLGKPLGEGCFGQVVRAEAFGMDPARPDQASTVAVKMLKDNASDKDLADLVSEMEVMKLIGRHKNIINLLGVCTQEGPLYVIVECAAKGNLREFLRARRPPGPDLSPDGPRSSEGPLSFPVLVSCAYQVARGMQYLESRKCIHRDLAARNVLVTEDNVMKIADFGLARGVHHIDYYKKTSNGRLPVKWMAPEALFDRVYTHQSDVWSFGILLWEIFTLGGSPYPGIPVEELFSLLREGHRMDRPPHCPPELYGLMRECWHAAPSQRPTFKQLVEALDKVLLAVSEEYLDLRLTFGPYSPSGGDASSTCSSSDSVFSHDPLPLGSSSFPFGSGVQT

[7] = average values if tested multiple times

SMILES | IC50 [1] [nM] | IC50 (FGFR2 (h); [7]) [nM] | IC50 (FGFR1 (h); [7]) [nM] | IC50 (FGFR3 (h); [7]) [nM] | BAF3-FGFR1 (MIN IL3) pIC50 [2] | IC50 [3] [nM] | BAF3-FGFR4 pIC50 [4] | BAF3-FGFR3 (MIN IL3) pIC50 [5] | IC50 [6] [nM] | IC50 (FGFR4 (h); [7]) [nM] | IC50 (FGFR2 (h)) [nM] | IC50 (FGFR1 (h)) [nM] | IC50 (FGFR3 (h)) [nM] | IC50 (FGFR4 (h)) [nM]
COc1cc(OC)c(F)c(N(Cc2ncc[nH]2)c2ccc3ncc(-c4cnn(Cc5ncc[nH]5)c4)nc3n2)c1 [Compound 100] | > 10000 | 2.14 | 1.29 | 1.29 | 8.02 | > 10000 | 6.99 | 7.56 | > 10000 | 1.29 | – | – | – | –
COc1cc(O)cc(N(Cc2ncc[nH]2)c2ccc3ncc(-c4cnn(C)c4)nc3n2)c1 [Compound 103] | > 8510 | 0.741 | 0.339 | 0.417 | 8.31 | > 10000 | ~7.43 | ~8.00 | > 10000 | 0.741 | – | – | – | –
COc1cc(OC)c(F)c(N(Cc2nc3c([nH]2)CCNC3)c2ccc3ncc(-c4cnn(C)c4)nc3n2)c1 [Compound 104] | > 10000 | 3.24 | 2.57 | 3.09 | 6.70 | > 10000 | 5.74 | ~6.01 | > 10000 | 3.47 | – | – | – | –
CNCCN(c1ccc2ncc(-c3cn[nH]c3)nc2n1)c1c(F)c(OC)cc(OC)c1F [Compound 106] | > 10000 | 2.14 | 1.86 | 1.48 | 7.86 | > 10000 | ~6.65 | ~7.12 | > 10000 | 4.68 | – | – | – | –
COc1cc(OC)c(F)c(N(Cc2nc[nH]c2C)c2ccc3ncc(-c4cnn(C)c4)nc3n2)c1 [Compound 109] | > 10000 | 2.29 | 1.15 | 1.45 | 7.85 | > 10000 | ~7.05 | ~7.65 | > 10000 | 2.69 | – | – | – | –
COc1cc(OC)c(F)c(N(Cc2ccnn2C)c2ccc3ncc(-c4cnn(C)c4)nc3n2)c1 [Compound 113] | > 10000 | 2.19 | 2 | 1.38 | 7.19 | > 10000 | 6.63 | 6.72 | > 10000 | 3.31 | – | – | – | –
COc1cc(/N=c2\ccc3ncc(-c4cnn(C)c4)nc3n2Cc2ccnn2C)c(F)c(OC)c1 [Compound 114] | > 10000 | 1.62 | 0.933 | 0.724 | 7.63 | > 10000 | 7.14 | ~7.66 | > 10000 | 0.891 | – | – | – | –
COc1cc(/N=c2\ccc3ncc(-c4cnn(C)c4)nc3n2Cc2cc[nH]n2)c(F)c(OC)c1 [Compound 115] | > 10000 | 1.58 | 0.708 | 0.851 | ~8.17 | > 10000 | ~7.59 | 7.82 | > 10000 | 0.933 | – | – | – | –
COc1cc(OC)c(F)c(N(Cc2cc[nH]n2)c2ccc3ncc(-c4cnn(C)c4)nc3n2)c1 [Compound 118] | > 10000 | 1.32 | 0.759 | 0.589 | 8.00 | > 10000 | ~7.56 | ~8.04 | > 10000 | 0.776 | – | – | – | –
COc1cc(/N=c2\ccc3ncc(-c4cnn(C)c4)nc3n2CCCN2CCCC2=O)c(F)c(OC)c1 [Compound 119] | > 3980 | – | – | – | ~7.92 | > 3980 | 7.28 | ~8.07 | > 3980 | – | 1.86 | 1.41 | 0.708 | 1
COc1cc(OC)c(F)c(N(CCCN2CCCC2=O)c2ccc3ncc(-c4cnn(C)c4)nc3n2)c1 [Compound 120] | > 10000 | – | – | – | 7.27 | > 10000 | 6.84 | 7.16 | > 10000 | – | 3.02 | 4.17 | 1.86 | 3.24
CNCCN(c1ccc2ncc(-c3cnn(C)c3)nc2n1)c1c(F)c(O)cc(OC)c1F [Compound 122] | > 10000 | – | – | – | 6.74 | > 10000 | 5.67 | 6.09 | > 10000 | – | 3.31 | 2.82 | 2.51 | 9.55
COc1cc(/N=c2\ccc3ncc(-c4cnn(C)c4)nc3n2CC2COC(=O)N2)c(F)c(OC)c1 (stereo not drawn) [Compound 123] | > 10000 | – | – | – | 7.21 | > 10000 | 6.62 | 7.16 | > 10000 | – | 1.26 | 1.35 | 0.741 | 2.75
COc1cc(OC)c(F)c(N(CC2COC(=O)N2)c2ccc3ncc(-c4cnn(C)c4)nc3n2)c1 (stereo not drawn) [Compound 124] | > 10000 | – | – | – | ~7.16 | > 10000 | ~6.64 | ~7.16 | > 10000 | – | 2.75 | 3.09 | 1.55 | 4.27
COc1cc(OC)c(F)c(N(Cc2cn[nH]c2)c2ccc3ncc(-c4cnn(C)c4)nc3n2)c1 [Compound 125] | > 10000 | – | – | – | 7.61 | > 10000 | ~7.15 | ~7.57 | > 10000 | – | 0.794 | 0.851 | 0.724 | 1.58
COc1cc(OC)c(F)c(N(Cc2ccn(C)n2)c2ccc3ncc(-c4cnn(C)c4)nc3n2)c1 [Compound 128] | > 10000 | – | – | – | 8.10 | > 10000 | 7.12 | 8.03 | > 10000 | – | 1.55 | 1.32 | 1.05 | 1.29
COc1cc(OC)cc(N(CC2CCCCO2)c2ccc3ncc(-c4cnn(C)c4)nc3n2)c1 (stereo not drawn) [Compound 129] | > 10000 | – | – | – | ~7.15 | > 10000 | 6.36 | ~7.15 | > 10000 | – | 2.4 | 3.47 | 2.69 | 7.76
COc1cc(OC)c(F)c(N(Cc2nccn2C)c2ccc3ncc(-c4cnn(C)c4)nc3n2)c1 [Compound 131] | > 10000 | – | – | – | 7.62 | > 10000 | 6.62 | 7.25 | > 10000 | – | 2.63 | 2.14 | 2.95 | 7.41
